These results are taken from patent US20220071971A1, “MACROCYCLIC COMPOUNDS AND THEIR USE IN THE TREATMENT OF DISEASE” (NOVARTIS AG, priority 2018, published 2022).

In general, EC50 refers to the concentration at which the effect is half-maximal.

This experiment deals with T1, delF508-CFTR (Homo sapiens, UniProt P13569, DEL508-508).
T1 construct: expressed in transfected cells
Put plainly: Measurement of delF508-CFTR-HRP surface expression in CFBE41o- cells. The format is cell-based. To be noted: for Emax: CFBE41o-, read-out: DelF508-CFTR-HRP Amax %; for EC50: HRP-tagged delF508-CFTR surface expression, CFBE41o- cells, 24 h with compound, 10-point curve, highest concentration 10 μM. The source says:
Measurement of deIF508-CFTR-HRP Surface Expression in CFBE41o-Cells
This assay quantifies the cell surface expressions of the mutant CFTR channel using an extracellular HRP tag.
A cellular assay was developed to measure surface expression of horseradish peroxidase (HRP) tagged delF508-CFTR in the human bronchial epithelial immortalized CFBE41o-cell line (Phuan, P. W., et al, (2014) Molecular Pharmacology 86:42-51). Specifically, the HRP sequence was inserted into the fourth extracellular loop of delF508-CFTR and stably expressed in CFBE41o-cells. Cells were seeded in 384 well plate at a density of 5000 cells/well and incubated at 37° C. for 12 to 24 hours in medium (Gibco MEM #11095, 10% FBS, 10 mM HEPES, […], 200 μg/mL G418, 3 μg/mL Puromycin). The delF508-CFTR-HRP expression was induced with 500 ng/mL doxycycline (Sigma D-9891, dissolved in H2O and sterile filtered) in medium and the cells were incubated at 37° C. for 48 h. Old medium was removed and fresh medium was added containing 500 ng/mL doxycycline and unknown test compound at required test concentration in DMSO, not exceeding 0.5% final DMSO concentration. The highest concentration tested was 10 μM with a 10-point concentration response curve using a 3-fold dilution. After addition of compounds, the cells were incubated for 24 h at 37° C. On the final day, cells were washed four times in PBS containing 1 mM MgCl2 and 0.1 mM CaCl2. HRP-Substrate (SuperSignal ELISA Pico, Fisher #37069) 20 μl/well was added and the luminescence signal was determined (Viewlux, Perkin Elmer). Light was emitted upon addition of exogenous HRP-Substrate only when delF508-CFTR-HRP reached the cell surface and the HRP tag was accessible to the HRP-Substrate (note: HRP-Substrate cannot cross the lipid bilayer to reach delF508-CFTR-HRP misfolded within the cell).
The median activity for the lowest concentration of the compounds on each assay plate was calculated and this value was used to normalize the signal for each well on the respective plate. Three replicates at each concentrations for every compound were run to determine one EC50. The median value was determined and used to calculate compound activities as described below. Effective half maximal values (EC50) were calculated for each compound by performing logistic regression on measured dose-response data points using the equation: […]
where “Y” is the observed activity, “Bottom” is the lowest observed value, “Top” is the highest observed value, and the “Hill coefficient” gives the largest absolute value of the slope. The curve fitting is carried out by a curve fitting program implemented at GNF using Matlab (Mathworks).
The dose response curves also were used to calculate Fold Change (FC) using the equation: […]
Compound efficacy relative to the reference compound 3-(6-(1-(2,2-difluorobenzo[d][1,3]dioxol-5-yl)cyclopropane-1-carboxamido)-3-methylpyridin-2-yl)benzoic acid was determined using the following formula: […]

Where [1] appears, read: efficacy relative to reference compound 3-(6-(1-(2,2-difluorobenzo[d][1,3]dioxol-5-yl)cyclopropane-1-carboxamido)-3-methylpyridin-2-yl)benzoic acid.

T1 sequence (P13569 with tags, fused parts or gaps DEL508-508): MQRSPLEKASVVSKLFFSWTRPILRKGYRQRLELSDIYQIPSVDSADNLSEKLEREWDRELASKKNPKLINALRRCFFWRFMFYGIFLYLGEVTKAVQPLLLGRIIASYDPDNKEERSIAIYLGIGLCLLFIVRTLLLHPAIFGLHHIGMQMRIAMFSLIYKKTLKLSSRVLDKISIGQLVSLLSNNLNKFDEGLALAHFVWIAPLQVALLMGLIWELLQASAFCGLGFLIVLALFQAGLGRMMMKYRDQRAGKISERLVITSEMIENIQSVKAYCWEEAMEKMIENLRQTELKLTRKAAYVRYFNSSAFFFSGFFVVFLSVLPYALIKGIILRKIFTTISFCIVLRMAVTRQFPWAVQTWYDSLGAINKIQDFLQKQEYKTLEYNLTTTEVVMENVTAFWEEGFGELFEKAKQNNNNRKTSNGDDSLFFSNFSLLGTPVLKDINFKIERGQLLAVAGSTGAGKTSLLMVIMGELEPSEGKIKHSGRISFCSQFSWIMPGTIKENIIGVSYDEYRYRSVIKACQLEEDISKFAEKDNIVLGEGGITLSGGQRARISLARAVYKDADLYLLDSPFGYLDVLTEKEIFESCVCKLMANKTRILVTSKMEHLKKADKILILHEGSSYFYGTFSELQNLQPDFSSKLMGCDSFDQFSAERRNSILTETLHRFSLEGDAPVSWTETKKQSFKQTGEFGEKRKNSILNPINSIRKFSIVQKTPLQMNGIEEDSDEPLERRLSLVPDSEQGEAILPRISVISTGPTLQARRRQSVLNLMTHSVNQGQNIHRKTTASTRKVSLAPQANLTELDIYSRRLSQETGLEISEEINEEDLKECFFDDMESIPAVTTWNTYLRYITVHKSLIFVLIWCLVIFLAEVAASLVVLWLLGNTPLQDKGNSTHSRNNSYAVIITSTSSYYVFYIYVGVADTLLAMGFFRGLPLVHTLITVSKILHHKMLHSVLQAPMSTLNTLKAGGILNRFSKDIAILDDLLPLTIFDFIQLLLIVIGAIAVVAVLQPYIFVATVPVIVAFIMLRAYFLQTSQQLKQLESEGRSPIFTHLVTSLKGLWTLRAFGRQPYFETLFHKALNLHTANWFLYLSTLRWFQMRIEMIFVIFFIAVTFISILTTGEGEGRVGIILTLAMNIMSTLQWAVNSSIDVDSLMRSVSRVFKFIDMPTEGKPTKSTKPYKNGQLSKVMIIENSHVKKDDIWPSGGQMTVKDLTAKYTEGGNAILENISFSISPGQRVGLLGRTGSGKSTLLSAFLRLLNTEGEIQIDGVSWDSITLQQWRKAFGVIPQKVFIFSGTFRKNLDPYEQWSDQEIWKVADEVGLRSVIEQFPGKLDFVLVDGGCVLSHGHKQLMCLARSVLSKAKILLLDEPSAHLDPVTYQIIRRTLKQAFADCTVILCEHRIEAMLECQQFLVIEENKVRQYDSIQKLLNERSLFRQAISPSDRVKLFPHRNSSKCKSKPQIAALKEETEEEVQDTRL

Consider `O=C(O)CCCCCN1CCCCCc2ccccc2-c2nc(ccc2Cl)NS(=O)(=O)c2cccc1n2` [Compound 82, 6-(2^3-chloro-4,4-dioxido-4-thia-3,6-diaza-2,5(2,6)-dipyridina-1(1,2)-benzenacycloundecaphane-6-yl)hexanoic acid], for which the half-maximal effective concentration (EC50) amounted to 0.844 µM. In addition, the Emax under setting [1] turned out to be 652%.

Turning to `O=C(O)CCN1CCCCCCCCCc2ccccc2-c2nc(ccc2C(F)(F)F)NS(=O)(=O)c2cccc1n2` [Compound 75, 3-(4,4-dioxido-2^3-(trifluoromethyl)-4-thia-3,6-diaza-2,5(2,6)-dipyridina-1(1,2)-benzenacyclopentadecaphane-6-yl)propanoic acid], the EC50 came out at 0.417 µM.

Regarding `O=C(O)CCN1CCCCc2ccccc2-c2nc(ccc2C(F)(F)F)NS(=O)(=O)c2cccc1n2` [Compound 87, 3-(4,4-dioxido-2^3-(trifluoromethyl)-4-thia-3,6-diaza-2,5(2,6)-dipyridina-1(1,2)-benzenacyclodecaphane-6-yl)propanoic acid], the EC50 is 1.42 µM. The Emax under setting [1] is 306%.

On to `O=S1(=O)Nc2ccc(C(F)(F)F)c(n2)-c2ccccc2OCCCCNc2cccc1n2` [Compound 1, 2^3-(trifluoromethyl)-11-oxa-4-thia-3,6-diaza-2,5(2,6)-dipyridina-1(1,2)-benzenacycloundecaphane 4,4-dioxide], for which the EC50 turned out to be 0.978 µM. Moreover, the Emax under setting [1] amounted to 372%.

On to `O=S1(=O)Nc2ccc(Cl)c(n2)-c2ccccc2CCCCOc2cccc1n2` [Compound 112, 2^3-chloro-6-oxa-4-thia-3-aza-2,5(2,6)-dipyridina-1(1,2)-benzenacyclodecaphane 4,4-dioxide], for which the EC50 came to 2.6 µM. The Emax under setting [1] was determined as 644%.

As for `O=S1(=O)Nc2ccc(C(F)(F)F)c(n2)-c2ccccc2COCCCNc2cccc1n2` [Compound 11, 2^3-(trifluoromethyl)-10-oxa-4-thia-3,6-diaza-2,5(2,6)-dipyridina-1(1,2)-benzenacycloundecaphane 4,4-dioxide], the EC50 amounted to 1.36 µM. For the same compound, the Emax under setting [1] worked out at 442%.

`O=S1(=O)Nc2ccc(C(F)(F)F)c(n2)-c2ccccc2CCCCCCCCN(CCCCO)c2cccc1n2` [Compound 44, 6-(4-hydroxybutyl)-2^3-(trifluoromethyl)-4-thia-3,6-diaza-2,5(2,6)-dipyridina-1(1,2)-benzenacyclotetradecaphane 4,4-dioxide]: the EC50 amounted to 0.159 µM.

For the compound `O=C(O)CCCN1CCCCCc2ccccc2-c2nc(ccc2C(F)(F)F)NS(=O)(=O)c2cccc1n2` [Compound 67, 4-(4,4-dioxido-2^3-(trifluoromethyl)-4-thia-3,6-diaza-2,5(2,6)-dipyridina-1(1,2)-benzenacycloundecaphane-6-yl)butanoic acid], the EC50 is 0.608 µM.

Turning to `O=S1(=O)Nc2ccc(C(F)(F)F)c(n2)-c2ccccc2CCCCCCCN(CCCCCO)c2cccc1n2` [Compound 41, 6-(5-hydroxypentyl)-2^3-(trifluoromethyl)-4-thia-3,6-diaza-2,5(2,6)-dipyridina-1(1,2)-benzenacyclotridecaphane 4,4-dioxide], the EC50 turned out to be 0.187 µM.

For the compound `O=C(O)CCN1CCCCCCCc2ccccc2-c2nc(ccc2C(F)(F)F)NS(=O)(=O)c2cccc1n2` [Compound 62, 3-(4,4-dioxido-2^3-(trifluoromethyl)-4-thia-3,6-diaza-2,5(2,6)-dipyridina-1(1,2)-benzenacyclotridecaphane-6-yl)propanoic acid], the EC50 turned out to be 0.403 µM.

Take `O=S1(=O)Nc2ccc(C(F)(F)F)c(n2)-c2ccccc2CCCCCNc2cccc1n2` [Compound 118, 2^3-(trifluoromethyl)-4-thia-3,6-diaza-2,5(2,6)-dipyridina-1(1,2)-benzenacycloundecaphane 4,4-dioxide]: the EC50 was 0.511 µM. Under setting [1], the Emax amounted to 705%.

For `O=S1(=O)Nc2ccc(C(F)(F)F)c(n2)-c2ccccc2CCCCCCN(CCCO)c2cccc1n2` [Compound 21, 6-(3-hydroxypropyl)-2^3-(trifluoromethyl)-4-thia-3,6-diaza-2,5(2,6)-dipyridina-1(1,2)-benzenacyclododecaphane 4,4-dioxide], the EC50 was found to be 0.179 µM. Moreover, the Emax under setting [1] was 941%.

Regarding `O=C(O)CCN1CCCCCCCCc2ccccc2-c2nc(ccc2C(F)(F)F)NS(=O)(=O)c2cccc1n2` [Compound 69, 3-(4,4-dioxido-2^3-(trifluoromethyl)-4-thia-3,6-diaza-2,5(2,6)-dipyridina-1(1,2)-benzenacyclotetradecaphane-6-yl)propanoic acid], the EC50 was 0.351 µM.

Consider `CC1(C)O[C@@H](CO)[C@H](CN2CCCCCc3ccccc3-c3nc(ccc3C(F)(F)F)NS(=O)(=O)c3cccc2n3)O1` [Compound 34, 6-(((4S,5S)-5-(hydroxymethyl)-2,2-dimethyl-1,3-dioxolan-4-yl)methyl)-2^3-(trifluoromethyl)-4-thia-3,6-diaza-2,5(2,6)-dipyridina-1(1,2)-benzenacycloundecaphane 4,4-dioxide], for which the EC50 worked out at 0.281 µM. Also, the Emax under setting [1] was determined as 448%.

Take `O=C(O)CCCCCN1CCCCCc2ccccc2-c2nc(ccc2C(F)(F)F)NS(=O)(=O)c2cccc1n2` [Compound 70, 6-(4,4-dioxido-2^3-(trifluoromethyl)-4-thia-3,6-diaza-2,5(2,6)-dipyridina-1(1,2)-benzenacycloundecaphane-6-yl)hexanoic acid]: the concentration for a half-maximal effect (EC50) came out at 0.373 µM. Moreover, the Emax under setting [1] was found to be 843%.

For the compound `O=S1(=O)Nc2ccc(C(F)(F)F)c(n2)-c2cc(F)ccc2OCCCCN(CCCO)c2cccc1n2` [Compound 22, 1^5-fluoro-6-(3-hydroxypropyl)-2^3-(trifluoromethyl)-11-oxa-4-thia-3,6-diaza-2,5(2,6)-dipyridina-1(1,2)-benzenacycloundecaphane 4,4-dioxide], the concentration for a half-maximal effect (EC50) was 0.603 µM. Moreover, the Emax under setting [1] was 666%.

Turning to `O=C(O)CCCN1CCCOCc2ccccc2-c2nc(ccc2C(F)(F)F)NS(=O)(=O)c2cccc1n2` [Compound 102, 4-(4,4-dioxido-2^3-(trifluoromethyl)-10-oxa-4-thia-3,6-diaza-2,5(2,6)-dipyridina-1(1,2)-benzenacycloundecaphane-6-yl)butanoic acid], the EC50 is 2.3 µM.

On to `O=S1(=O)Nc2ccc(Cl)c(n2)-c2cccnc2NCCCCCNc2cccc1n2` [Compound 105, 2^3-chloro-4-thia-3,6,12-triaza-1(3,2),2,5(2,6)-tripyridinacyclododecaphane 4,4-dioxide], for which the EC50 worked out at 2.22 µM. Besides, the Emax under setting [1] was determined as 178%.

`O=C(O)CN1CCCCCCc2ccccc2-c2nc(ccc2C(F)(F)F)NS(=O)(=O)c2cccc1n2` [Compound 120, 2-(4,4-dioxido-2^3-(trifluoromethyl)-4-thia-3,6-diaza-2,5(2,6)-dipyridina-1(1,2)-benzenacyclododecaphane-6-yl)acetic acid]: the EC50 worked out at 1.41 µM. Besides, the Emax under setting [1] came to 949%.

Take “6-(3-hydroxypropyl)-2^3-(trifluoromethyl)-9-oxa-4-thia-3,6-diaza-2,5(2,6)-dipyridina-1(1,2)-benzenacyclododecaphane 4,4-dioxide [Compound 30]”: the EC50 was 1.48 µM. Also, the “DelF508-CFTR-HRP Amax %” value under setting [1] stood at 1656.8%.

`O=S1(=O)Nc2ccc(Cl)c(n2)-c2ccccc2CCCCCN(CCCO)c2cccc1n2` [Compound 24, 2^3-chloro-6-(3-hydroxypropyl)-4-thia-3,6-diaza-2,5(2,6)-dipyridina-1(1,2)-benzenacycloundecaphane 4,4-dioxide]: the concentration giving a half-maximal response (EC50) turned out to be 0.165 µM. For the same compound, the Emax under setting [1] was 448%.

As to `O=C(O)CCCN1CCCCCc2ccccc2-c2nc(ccc2Cl)NS(=O)(=O)c2cccc1n2` [Compound 79, 4-(2^3-chloro-4,4-dioxido-4-thia-3,6-diaza-2,5(2,6)-dipyridina-1(1,2)-benzenacycloundecaphane-6-yl)butanoic acid], the EC50 is 1.6 µM.
